According to patent US4267184A, “Antiinflammatory 4,5-diaryl-2-(substituted-thio)pyrroles and their corresponding sulfoxides and sulfones” (E. I. Du Pont de Nemours and Company, priority 1980, dated 1981):

How the values were obtained:
[1] = system: phenylquinone writhing in mice; test: Phenylquinone Writhing Test (analgesic activity); assay type: in vivo, female white mice; details: Mus musculus, oral, phenylquinone i.p., effective analgesic dose for 50% of the mice
Source text: A procedure for detecting and comparing the analgesic activity of compounds in this series and standard drugs for which there is a good correlation with human efficacy is the phenylquinone writhing test.
(§1) The test procedures employed for determining antiinflammatory and analgesic activity are described below with test data included in Tables VII and VIII.
The phenylquinone writhing test, modified from Siegmund, et al., Proc. Soc. Exp. Biol. Med. 95, 729 (1957), was employed. A test compound suspended in 1% methylcellulose was given orally to fasted (17-21 hours) female white mice, 5-20 animals per double blind test. Aqueous (0.01% phenyl-p-benzoquinone) phenylquinone was injected intraperitoneally at 24 minutes later using 0.20 ml per mouse. […] The effective analgesic dose for 50% of the mice (ED50) was calculated by the moving average method of Thompson, W. R., Bact. Rev. 11, 115-145 (1947).

[2] = system: Adjuvant-Induced Arthritis in Rats; test: Established Adjuvant-Induced Arthritis in Rats; assay type: in vivo, Charles River Lewis male rats; details: for ED50: 168 h, oral gavage daily for 7 days, ED50% decrease from control paw volume
Description: A procedure for detecting and comparing the antiinflammatory activity of compounds in this series and standard drugs for which there is a good correlation with human efficacy is the adjuvant-induced arthritis test in rats.
as §1
Charles River Lewis male rats (130-150 grams) are injected subcutaneously in plantar area of the right hind paw with 0.1 ml of adjuvant (Difco heat-killed, lyophilized Mycobacterium butyricum suspended in mineral oil 5 mg/ml). 20 Non-arthritic controls are injected with mineral oil. The animals are held for 2 weeks to allow development of arthritis. Paw volumes (uninjected, left hind paw) are measured and the adjuvant injected rats are culled and distributed to treatment groups of 10 of equal disease severity. Non-arthritic controls are distributed to 2 groups of 10. The rats are given oral doses of compound or PVA-Acacia (Polyvinyl Alcohol 1%, Gum Acacia, U.S.P. 5%, Methylparaben 0.5%) (10 ml/kg) by gavage on that day and on the 6 following days. One day after the last dose the paw volumes (uninjected, left hind paw) are measured using a Ugo Basile Volume Differential Meter Model 7101. [formula]
Dose-response regression lines of the % decrease are plotted on semi-log paper by visual fit and the ED50% decrease from control paw volume is determined by inspection.

[3] = Rattus norvegicus, Table VII, oral, read-out: percent reduction in paw volume at the indicated dose
[4] = Table VIII, oral, dose 27 (unit not given)

Compound | ED50 ([1]; Table VII) [mg/kg] | ED50 ([2]; Rattus norvegicus, Table VII) [mg/kg] | ED50 ([1]; Table VIII) [mg/kg] | further results
FC(F)(F)Sc1cc(-c2ccccc2)c(-c2ccccc2)[nH]1 [Example 1, 4,5-Diphenyl-2-(trifluoromethylthio)pyrrole] | > 135 | – | – | inhibition in vivo at 25 mg/kg [2, 3]: 36%
COc1ccc(-c2cc(SC(F)(F)F)[nH]c2-c2ccc(OC)cc2)cc1 [Example 2, 4,5-Bis(4-methoxyphenyl)-2-(trifluoromethylthio)pyrrole] | 30 | 1.7 | – | –
Fc1ccc(-c2cc(SC(F)(F)F)[nH]c2-c2ccc(F)cc2)cc1 [Example 3, 4,5-bis(4-fluorophenyl)-2-(trifluoromethylthio)pyrrole] | > 135 | 1.5 | – | –
FC(F)(F)Sc1cc(-c2ccc(Cl)cc2)c(-c2ccc(Cl)cc2)[nH]1 [Example 4] | > 130 | 2.8 | – | –
CCOc1ccc(-c2[nH]c(SC(F)(F)F)cc2-c2ccc(F)cc2)cc1 [Example 5] | > 130 | – | – | inhibition in vivo at 27 mg/kg [2, 3]: 19%
Fc1ccc(-c2[nH]c(SC(F)(F)F)cc2-c2ccc(Cl)cc2)cc1 [Example 6] | > 108 | 2 | – | –
Fc1ccc(-c2cc(SC(F)(F)F)[nH]c2-c2ccc(Cl)cc2)cc1 [Example 7] | > 108 | 1.1 | – | –
COc1ccc(-c2[nH]c(SC(F)(F)F)cc2-c2ccc(F)cc2)cc1 [Example 8] | 26 | 30 | – | –
COc1ccc(-c2[nH]c(SC(F)(F)F)cc2-c2ccc(Cl)cc2)cc1 [Example 9] | > 108 | 6 | – | –
Fc1ccc(-c2cc(SC(F)(F)F)[nH]c2-c2ccccc2)cc1 [Example 10] | > 108 | – | – | inhibition in vivo at 27 mg/kg [2, 3]: 22%
FC(F)(F)Sc1cc(-c2ccc(Cl)cc2)c(-c2ccccc2)[nH]1 [Example 11] | > 108 | 25 | – | –
Cc1ccc(-c2cc(SC(F)(F)F)[nH]c2-c2ccc(C)cc2)cc1 [Example 12] | 16.2 | 25 | – | –
Fc1cccc(-c2cc(SC(F)(F)F)[nH]c2-c2cccc(F)c2)c1 [Example 13] | > 108 | – | – | inhibition in vivo at 27 mg/kg [2, 3]: 33%
Cc1c(SC(F)(F)F)[nH]c(-c2ccccc2)c1-c1ccccc1 [Example 15] | – | – | > 108 | ED50 ([2]; Rattus norvegicus, Table VIII): 7.5 mg/kg
FC(F)(F)Sc1cc(-c2ccccc2)c(-c2ccc(Cl)c(Cl)c2)[nH]1 [Example 16] | > 108 | 2.5 | – | –
FC(F)(F)Sc1cc(-c2ccccc2)c(-c2cccnc2)[nH]1 [Example 17] | – | – | > 108 | ED50 ([2]; Rattus norvegicus, Table VIII): 1.4 mg/kg
COc1ccc(-c2cc(SC(F)(F)F)[nH]c2-c2cccs2)cc1 [Example 18] | – | – | 78 | ED50 ([2]; Rattus norvegicus, Table VIII): ~100 mg/kg
Fc1ccccc1-c1cc(SC(F)(F)F)[nH]c1-c1ccccc1F [Example 19] | – | – | > 108 | Adjuvant Arthritis, value in parenthesis (percent reduction in paw volume/dose) ([2]; Table VIII, oral, dose 45 (unit not given)): 29%
COc1ccc(-c2[nH]c(SC(F)(F)F)cc2-c2ccccc2)cc1 [Example 20] | – | – | 22 | Adjuvant Arthritis, value in parenthesis (percent reduction in paw volume/dose) [2, 4]: 44%
Fc1ccc(-c2cc(SC(F)(F)F)[nH]c2-c2ccc(Br)cc2)cc1 [Example 21] | – | – | > 108 | ED50 ([2]; Rattus norvegicus, Table VIII): 3.5 mg/kg
CN(C)c1ccc(-c2[nH]c(SC(F)(F)F)cc2-c2ccc(F)cc2)cc1 [Example 22] | – | – | > 108 | ED50 ([2]; Rattus norvegicus, Table VIII): 8.8 mg/kg
Fc1ccc(-c2[nH]c(SC(F)(F)F)cc2-c2ccccc2)cc1 [Example 23] | – | – | > 108 | Adjuvant Arthritis, value in parenthesis (percent reduction in paw volume/dose) [2, 4]: 27%
FC(F)(F)Sc1cc(-c2ccccc2)c(-c2ccc(Cl)cc2)[nH]1 [Example 24] | – | – | > 135 | ED50 ([2]; Rattus norvegicus, Table VIII): 10 mg/kg
FC(F)(F)Sc1cc(-c2cccc(Cl)c2)c(-c2cccc(Cl)c2)[nH]1 [Example 25] | – | – | > 108 | ED50 ([2]; Rattus norvegicus, Table VIII): 25 mg/kg
CSc1ccc(-c2[nH]c(SC(F)(F)F)cc2-c2ccc(F)cc2)cc1 [Example 26] | – | – | > 108 | ED50 ([2]; Rattus norvegicus, Table VIII): 0.6 mg/kg
Fc1ccc(-c2cc(SC(F)(F)F)[nH]c2-c2cccs2)cc1 [Example 27] | – | – | > 108 | ED50 ([2]; Rattus norvegicus, Table VIII): ~27 mg/kg
Fc1ccc(-c2cc(SC(F)(F)F)[nH]c2-c2cccnc2)cc1 [Example 28] | – | – | > 135 | ED50 ([2]; Rattus norvegicus, Table VIII): 0.04 mg/kg
CS(=O)(=O)c1ccc(-c2[nH]c(SC(F)(F)F)cc2-c2ccc(F)cc2)cc1 [Example 29] | – | – | > 108 | ED50 ([2]; Rattus norvegicus, Table VIII): 0.15 mg/kg

Compound | ED50 ([1]; Table VII) [mg/kg] | ED50 ([2]; Rattus norvegicus, Table VII) [mg/kg] | ED50 ([1]; Table VIII) [mg/kg] | further results
Cc1c(SC(F)(F)F)[nH]c(-c2ccc(Cl)cc2)c1-c1ccc(Cl)cc1 [Example 30] | – | – | > 108 | ED50 ([2]; Rattus norvegicus, Table VIII): 2 mg/kg
Cc1c(SC(F)(F)F)[nH]c(-c2ccc(F)cc2)c1-c1ccc(F)cc1 [Example 31] | – | – | > 135 | ED50 ([2]; Rattus norvegicus, Table VIII): 0.6 mg/kg
COc1ccc(-c2[nH]c(SC(F)(F)F)c(C)c2-c2ccc(OC)cc2)cc1 [Example 32] | – | – | – | ED50 ([2]; Rattus norvegicus, Table VIII): 2.2 mg/kg
CCCc1c(SC(F)(F)F)[nH]c(-c2ccc(F)cc2)c1-c1ccc(F)cc1 [Example 33] | – | – | > 108 | ED50 ([2]; Rattus norvegicus, Table VIII): 6.5 mg/kg
Fc1ccc(-c2cc(SC(F)(F)C(F)F)[nH]c2-c2ccc(F)cc2)cc1 [Example 35, 4,5-Bis(4-fluorophenyl)-2-(1,1,2,2-tetrafluoroethylthio)pyrrole] | > 108 | 4 | – | –
COc1ccc(-c2cc(SC)[nH]c2-c2ccc(OC)cc2)cc1 [Example 36] | > 130 | 5 | – | –
CSc1cc(-c2ccc(Cl)cc2)c(-c2ccc(Cl)cc2)[nH]1 [Example 38] | > 108 | 10 | – | –
FC(F)C(F)(F)Sc1cc(-c2ccc(Cl)cc2)c(-c2ccc(Cl)cc2)[nH]1 [Example 40] | > 108 | – | – | inhibition in vivo at 9 mg/kg [2, 3]: 36%
CSc1cc(-c2ccc(F)cc2)c(-c2ccc(F)cc2)[nH]1 [Example 41] | > 108 | – | – | inhibition in vivo at 27 mg/kg [2, 3]: 19%
CSc1cc(-c2ccc(Cl)cc2)c(-c2ccc(F)cc2)[nH]1 [Example 43] | > 108 | 20 | – | –
CSc1cc(-c2ccc(F)cc2)c(-c2ccc(Cl)cc2)[nH]1 [Example 44] | > 108 | 25 | – | –
COc1ccc(-c2[nH]c(SC)cc2-c2ccc(F)cc2)cc1 [Example 45] | 78 | 37 | – | –
COc1ccc(-c2[nH]c(SC)cc2-c2ccc(Cl)cc2)cc1 [Example 46] | 63 | 23 | – | –
CSc1cc(-c2ccc(F)cc2)c(-c2ccccc2)[nH]1 [Example 47] | – | – | – | inhibition in vivo at 200 mg/kg ([2]; Rattus norvegicus, Table VII, oral, dose 200 mg/kg, read-out: percent reduction in paw volume at the indicated dose): 46%
CSc1cc(-c2ccc(Cl)cc2)c(-c2ccccc2)[nH]1 [Example 48] | > 108 | – | – | inhibition in vivo at 45 mg/kg ([2]; Rattus norvegicus, Table VII, oral, dose 45 mg/kg, read-out: percent reduction in paw volume at the indicated dose): 22%
CSc1cc(-c2ccc(C)cc2)c(-c2ccc(C)cc2)[nH]1 [Example 49] | > 135 | 50 | – | –
O=S(=O)(c1cc(-c2ccccc2)c(-c2ccccc2)[nH]1)C(F)(F)F [Example 51] | 15 | – | – | inhibition in vivo at 25 mg/kg [2, 3]: 46%
[O-][S+](c1cc(-c2ccccc2)c(-c2ccccc2)[nH]1)C(F)(F)F (centres unmarked) [Example 52] | 30 | – | – | inhibition in vivo at 25 mg/kg [2, 3]: 31%
COc1ccc(-c2cc(S(=O)(=O)C(F)(F)F)[nH]c2-c2ccc(OC)cc2)cc1 [Example 53] | 78 | – | – | inhibition in vivo at 9 mg/kg [2, 3]: 36%
COc1ccc(-c2cc(S(C)(=O)=O)[nH]c2-c2ccc(OC)cc2)cc1 [Example 54] | 16 | 1 | – | –
CCS(=O)(=O)c1cc(-c2ccc(OC)cc2)c(-c2ccc(OC)cc2)[nH]1 [Example 55] | 19 | 9 | – | –
O=S(=O)(c1cc(-c2ccc(F)cc2)c(-c2ccc(F)cc2)[nH]1)C(F)(F)F [Example 56] | > 135 | 1.4 | – | –
[O-][S+](c1cc(-c2ccc(F)cc2)c(-c2ccc(F)cc2)[nH]1)C(F)(F)F (centres unmarked) [Example 57] | > 135 | 1 | – | –
O=S(=O)(c1cc(-c2ccc(Cl)cc2)c(-c2ccc(Cl)cc2)[nH]1)C(F)(F)F [Example 58] | < 130 | 1.7 | – | –
[O-][S+](c1cc(-c2ccc(Cl)cc2)c(-c2ccc(Cl)cc2)[nH]1)C(F)(F)F (centres unmarked) [Example 59] | > 135 | 2.7 | – | –
CCOc1ccc(-c2[nH]c(S(=O)(=O)C(F)(F)F)cc2-c2ccc(F)cc2)cc1 [Example 60] | > 130 | 16 | – | –
O=S(=O)(c1ccccc1)n1c(SC(F)(F)F)cc(-c2ccc(F)cc2)c1-c1ccc(F)cc1 [Example 77] | – | – | – | Adjuvant Arthritis, value in parenthesis (percent reduction in paw volume/dose) ([2]; Table VIII, oral, dose 9.0 (unit not given)): 37%
